# Like-named read-outs stand apart in the source and are kept apart here.
# Tests used:
# [1] = target: T1, USP25 (Homo sapiens, UniProt Q9UHP3); assay: USP25 activity measured using ubiquitin-rhodamine 110 method; type: biochemical; details: for IC50: purified USP25 15 nM, ubiquitin-rhodamine 110 125 nM, 30 min preincubation; for IC50(F)/IC50(E) USP25: ratio of IC50 of related 3-NH2 compound (F) to IC50 of 3-NHMe compound disclosed herein (E)
# T1 construct: purchased R&D Systems
# T1 sequence (Q9UHP3 1-1055): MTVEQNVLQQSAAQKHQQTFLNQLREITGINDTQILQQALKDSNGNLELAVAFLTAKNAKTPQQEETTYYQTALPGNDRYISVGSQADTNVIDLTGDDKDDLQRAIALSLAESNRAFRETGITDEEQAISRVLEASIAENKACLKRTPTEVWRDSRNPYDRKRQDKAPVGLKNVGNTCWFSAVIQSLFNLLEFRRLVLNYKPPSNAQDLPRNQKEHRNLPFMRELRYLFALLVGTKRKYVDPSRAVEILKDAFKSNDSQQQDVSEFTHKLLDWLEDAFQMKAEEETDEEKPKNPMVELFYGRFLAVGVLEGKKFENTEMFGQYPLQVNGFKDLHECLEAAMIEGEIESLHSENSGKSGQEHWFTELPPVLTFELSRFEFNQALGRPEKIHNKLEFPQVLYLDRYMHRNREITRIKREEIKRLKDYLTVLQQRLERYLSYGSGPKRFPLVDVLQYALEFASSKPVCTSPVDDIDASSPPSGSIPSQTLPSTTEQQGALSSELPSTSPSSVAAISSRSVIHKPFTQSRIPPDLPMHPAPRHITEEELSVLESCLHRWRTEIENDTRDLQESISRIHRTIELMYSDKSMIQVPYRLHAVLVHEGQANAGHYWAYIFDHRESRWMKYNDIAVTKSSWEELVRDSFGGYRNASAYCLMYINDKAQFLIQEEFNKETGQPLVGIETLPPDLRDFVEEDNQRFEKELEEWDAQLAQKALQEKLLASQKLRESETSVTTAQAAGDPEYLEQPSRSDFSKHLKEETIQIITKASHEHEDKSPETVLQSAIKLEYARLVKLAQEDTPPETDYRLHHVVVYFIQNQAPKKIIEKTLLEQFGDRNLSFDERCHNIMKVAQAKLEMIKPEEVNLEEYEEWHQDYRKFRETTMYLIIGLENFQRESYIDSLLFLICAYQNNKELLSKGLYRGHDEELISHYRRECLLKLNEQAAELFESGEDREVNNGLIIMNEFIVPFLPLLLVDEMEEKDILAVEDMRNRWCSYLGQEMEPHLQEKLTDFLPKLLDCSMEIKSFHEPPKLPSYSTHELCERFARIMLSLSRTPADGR
# Protocol: USP25 activity was measured using ubiquitin-rhodamine 110 method.
# (§1) Purified USP25 and the ubiquitin-rhodamine 110 substrate used for measuring DUBs activity were both from R&D Systems. Test compounds were first dissolved in DMSO to prepare a 10 mM stock solution, and then the stock solution was diluted with a buffer solution [containing 20 mM Tris-HCl (pH 8.0), 2 mM CaCl2), 3 mM BME, 0.01% Prionix, 0.01% Triton X-100] to the desired concentration (with DMSO content less than or equal to 0.5%). The dilution was mixed well with USP25 (final concentration 15 nM) in a 96-well plate and incubated at room temperature for 30 min, and then added with the substrate (ubiquitin-rhodamine 110) to 125 nM. The final volume of the whole reaction system was 20 μL. The released fluorescence (excitation wavelength 485 nm, emission wavelength 535 nm) was detected immediately on a microplate reader after the addition of the substrate, and the inhibitory rate of the test compound against USP25 was calculated according to the following formula: Inhibition %=1−[(test compound+fluorescence value of substrate−fluorescence value of test compound (no substrate))/mean fluorescence value of DMSO control group−fluorescence value of test compound (no substrate)]
# As in Example 11, according to the inhibitory rates of the test compound against USP25 under different concentrations, IC50 was calculated.
# [2] = target: T2, USP28 (Homo sapiens, UniProt Q96RU2); assay: USP28 activity measured using ubiquitin-rhodamine 110 method; type: biochemical; details: for IC50: purified USP28 4 nM, ubiquitin-rhodamine 110 125 nM, 30 min preincubation; for IC50(F)/IC50(E) USP28: ratio of IC50 of related 3-NH2 compound (F) to IC50 of 3-NHMe compound disclosed herein (E)
# T2 construct: purchased R&D Systems
# T2 sequence (Q96RU2 1-1077): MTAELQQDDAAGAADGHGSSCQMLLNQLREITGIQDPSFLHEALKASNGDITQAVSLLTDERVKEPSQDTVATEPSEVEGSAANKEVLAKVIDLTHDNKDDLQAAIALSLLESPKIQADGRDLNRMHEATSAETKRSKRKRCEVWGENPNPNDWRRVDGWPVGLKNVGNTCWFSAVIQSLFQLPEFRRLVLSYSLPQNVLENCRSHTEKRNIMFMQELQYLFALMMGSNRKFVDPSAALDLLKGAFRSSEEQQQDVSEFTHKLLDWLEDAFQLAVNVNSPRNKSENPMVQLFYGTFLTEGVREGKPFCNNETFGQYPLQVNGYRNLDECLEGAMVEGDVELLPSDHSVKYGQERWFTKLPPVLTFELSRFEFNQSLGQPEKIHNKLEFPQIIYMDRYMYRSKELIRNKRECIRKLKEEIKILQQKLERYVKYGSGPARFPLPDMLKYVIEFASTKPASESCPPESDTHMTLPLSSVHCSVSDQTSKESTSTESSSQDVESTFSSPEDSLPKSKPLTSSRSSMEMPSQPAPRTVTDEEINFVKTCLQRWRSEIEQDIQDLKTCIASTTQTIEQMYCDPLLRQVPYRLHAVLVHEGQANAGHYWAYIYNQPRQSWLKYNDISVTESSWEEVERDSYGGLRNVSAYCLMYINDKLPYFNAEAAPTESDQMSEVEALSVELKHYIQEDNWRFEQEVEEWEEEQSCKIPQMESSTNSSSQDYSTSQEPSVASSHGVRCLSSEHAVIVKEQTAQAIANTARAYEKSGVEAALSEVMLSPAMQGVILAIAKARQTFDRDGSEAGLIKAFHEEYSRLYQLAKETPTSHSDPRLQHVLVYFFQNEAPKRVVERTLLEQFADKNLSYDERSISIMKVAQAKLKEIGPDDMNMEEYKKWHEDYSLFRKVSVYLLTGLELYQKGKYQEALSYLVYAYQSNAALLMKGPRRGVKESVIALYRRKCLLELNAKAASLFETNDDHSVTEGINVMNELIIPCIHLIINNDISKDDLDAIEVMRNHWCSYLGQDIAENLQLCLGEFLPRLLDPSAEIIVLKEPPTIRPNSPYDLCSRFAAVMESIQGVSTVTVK
# Protocol: USP28 activity was measured using ubiquitin-rhodamine 110 method.
# as §1, with “USP28” for “USP25”, “4” for “15”, “substrate. The” for “substrate, and the”
# According to the inhibitory rates of the test compound against USP28 under different concentrations, IC50 was calculated.
# [3] = read-out: Inhibitory activity against USP25 (IC50)
# [4] = read-out: Inhibitory activity against USP28 (IC50)
# [5] = Inhibitory activity against USP28 (IC50)
# [6] = Inhibitory activity against USP25 (IC50)
"IC50 [2, 4] [nM]",SMILES,"IC50 [1, 3] [nM]",IC50(F)/IC50(E) USP25 [1],IC50(F)/IC50(E) USP28 [2],"IC50 [2, 5] [nM]","IC50 [1, 6] [nM]"
< 100,CNc1c(C(=O)NCCc2c[nH]c3ccccc23)sc2nc(C(F)(F)F)ccc12 [Compound I-54],5000 to 10000,,,,
1000 to 5000,CNc1c(C(=O)N[C@H](COC)Cc2c[nH]c3ccccc23)sc2nc(C)ccc12 [Compound I-55],> 10000,,,,
100 to 1000,CNc1c(C(=O)NCCc2coc3ccccc23)sc2nc(C)ccc12 [Compound I-56],1000 to 5000,,,,
< 100,CNc1c(C(=O)NCCc2csc3ccccc23)sc2nc(C)ccc12 [Compound I-57],5000 to 10000,,,,
100 to 1000,CNc1c(C(=O)NCCc2ccc(OC)c(OC)c2)sc2nc(C)ccc12 [Compound I-58],> 10000,>8,5.0,,
< 100,CCc1nc2sc(C(=O)NCCc3ccc(OC)c(OC)c3)c(NC)c2c(C(F)(F)F)c1C [Compound I-59],1000 to 5000,,,,
< 100,CNc1c(C(=O)NCCc2ccc(OC)c(OC)c2)sc2nc(C)cc(C)c12 [Compound I-60],5000 to 10000,,,,
1000 to 5000,CNc1c(C(=O)N[C@@H](C)Cc2ccc(Br)cc2)sc2nc(C)ccc12 [Compound I-61],> 10000,,,,
100 to 1000,CNc1c(C(=O)N[C@H](C)Cc2ccc(Br)cc2)sc2nc(C)ccc12 [Compound I-62],> 10000,,,,
,CNc1c(C(=O)N[C@H](C)Cc2ccc(N3C[C@H]4CC[C@@H](C3)N4)cc2)sc2nc(C)ccc12 [Compound I-64],100 to 1000,,,< 100,
,CNc1c(C(=O)NC[C@@H](F)c2ccc(N3C[C@H]4CC[C@@H](C3)N4)cc2)sc2nc(C)ccc12 [Compound I-69],100 to 1000,,,< 100,
,CNc1c(C(=O)NCCc2ccc(N3C[C@H]4CC[C@@H](C3)N4)cc2)sc2nc(C)cnc12 [Compound I-71],5000 to 10000,,,< 100,
,CCc1cnc2c(NC)c(C(=O)NCCc3ccc(N4C[C@H]5CC[C@@H](C4)N5)cc3)sc2n1 [Compound I-72],100 to 1000,,,< 100,
,CNc1c(C(=O)NCCc2ccc(N3CC4CCC(C3)N4)cc2)sc2nc(C(C)C)cnc12 [Compound I-73],100 to 1000,,,< 100,
,CCc1nc2sc(C(=O)NCCc3ccc(N4C[C@H]5CC[C@@H](C4)N5)cc3)c(NC)c2nc1C [Compound I-74],,,,< 100,< 100
,CNc1c(C(=O)NCCc2ccc(N3C[C@H]4CC[C@@H](C3)N4)c(Cl)c2)sc2nc(C)cnc12 [Compound I-75],,,,< 100,< 100
,CNc1c(C(=O)NCCc2ccc(N3C[C@H]4CC[C@@H](C3)N4)c(F)c2)sc2nc(C)cnc12 [Compound I-76],,>20,33.3,< 100,< 100
,CNc1c(C(=O)NCCc2ccc(N3C[C@H]4CC[C@@H](C3)N4)cc2F)sc2nc(C)cnc12 [Compound I-77],,,,< 100,< 100
,CNc1c(C(=O)NCCc2cc(F)c(N3C[C@H]4CC[C@@H](C3)N4)cc2F)sc2nc(C)cnc12 [Compound I-78],,,,< 100,< 100
,CNc1c(C(=O)NC[C@H](C)c2cc(F)c(N3C[C@H]4CC[C@@H](C3)N4)cc2F)sc2nc(C)cnc12 [Compound I-79],100 to 1000,,,< 100,

SMILES,"IC50 [2, 4] [nM]","IC50 [1, 3] [nM]",IC50(F)/IC50(E) USP25 [1],IC50(F)/IC50(E) USP28 [2],"IC50 [2, 5] [nM]","IC50 [1, 6] [nM]"
CNc1c(C(=O)N[C@@H](C)Cc2ccc(N3C[C@H]4CC[C@@H](C3)N4)cc2)sc2nc(C)ccc12 [Compound I-63],100 to 1000,> 10000,,,,
CNc1c(C(=O)N[C@H](COC)Cc2ccc(N3C[C@H]4CC[C@@H](C3)N4)cc2)sc2nc(C)ccc12 [Compound I-65],100 to 1000,5000 to 10000,,,,
CNc1c(C(=O)N[C@@H](Cc2ccc(N3C[C@H]4CC[C@@H](C3)N4)cc2)C(F)(F)F)sc2nc(C)ccc12 [Compound I-66],100 to 1000,100 to 1000,,,,
CNc1c(C(=O)NC[C@H](C)c2ccc(N3C[C@H]4CC[C@@H](C3)N4)cc2)sc2nc(C)ccc12 [Compound I-67],100 to 1000,100 to 1000,,,,
CNc1c(C(=O)NC[C@@H](C)c2ccc(N3C[C@H]4CC[C@@H](C3)N4)cc2)sc2nc(C)ccc12 [Compound I-68],100 to 1000,100 to 1000,,,,
CNc1c(C(=O)NCCc2ccc(N3C[C@H]4CC[C@@H](C3)N4)cc2)sc2nccnc12 [Compound I-70],1000 to 5000,> 10000,,,,
CNc1c(C(=O)NCCc2ccc(N3C[C@H]4CC[C@@H](C3)N4)cc2)sc2nc(C#N)ccc12 [Compound I-80],1000 to 5000,1000 to 5000,,,,
CNc1c(C(=O)NCCc2ccc(N3C[C@H]4CC[C@@H](C3)N4)cc2F)sc2nc(Cl)cnc12 [Compound I-81],1000 to 5000,> 10000,,,,

# — patent US12486284B2, “Ubiquitin-specific protease inhibitor and preparation method therefor and use thereof” (CHASER THERAPEUTICS, INC., priority 2019, dated 2025)
